In US4202979A, “6-Ethyl(or allyl)-8-methoxymethyl or methylmercaptomethylergolines and related compounds” (priority 1979, dated 1980):
Structures can show the parent of a compound that is named as a salt. Where two headings read alike, the source gives them in different places.

How the values were obtained:
[1] = background; cited from earlier work
Parkinsonism = settings: literature; cited from earlier work
dopamine receptor = settings: literature; cited from earlier work
prolactin [2] = settings: literature; cited from earlier work
dopamine receptors = experiment: inhibition of high affinity binding of tritiated dopamine to dopamine receptors in membranes from striatal synaptosomes of bovine brain; settings: for Ki: Table 3, tritiated dopamine, striatal synaptosomes of bovine brain
prolactin [3] = experiment: inhibition of serum prolactin in reserpine-pretreated male rats; assay type: in vivo, rat (Sprague-Dawley); settings: for inhibition at 0.05 mg/kg: Rattus norvegicus, ip, read-out: Percent Inhibition of Serum Prolactin
Experimental: Adult male rats of the Sprague-Dawley strain weighing about 200 g. were housed in an air-conditioned room with controlled lighting (lights on 6 a.m.-8 p.m.) and fed lab chow and water ad libitum. Each rat received an intraperitoneal injection of 2.0 mg. of reserpine in aqueous suspension 18 hours before administration of the ergoline derivative. The purpose of the reserpine was to keep prolactin levels uniformly elevated. The compounds under test were dissolved in 10 percent ethanol at a concentration of 10 mcg/ml. and were injected intraperitoneally at a standard dose of 50 mcg/kg. Each compound was administered to a group of 10 rats, and a control group of 10 intact males received an equivalent amount of 10 percent ethanol. One hour after treatment all rats were killed by decapitation, and 150 μl aliquots of serum were assayed for prolactin. The results were evaluated statistically using Student's "t" test to calculate the level of significance, "p", of the changes in prolactin level.
The difference between the prolactin level of the treated rats and prolactin level of the control rats, divided by the prolactin level of the control rats gives the percent inhibition of prolactin secretion attributable to the compounds of this invention. In the table, column 1 gives the name of the compound; column 2, the prolactin level for each group of rats; column 3, the percent prolactin inhibition; and column 4, the level of significance. The data were collected from three separate experiments, each with its own control, and Table 2 sets forth the results obtained by experiment.

[4] = tested on: 6-hydroxydopamine-lesioned rats (dopamine agonist activity); experiment: rat turning test (turning behavior contralateral to lesion in 6-hydroxydopamine-lesioned rats); assay type: in vivo; settings: for Average Number of Turns/rat: first 15 minutes after end of latency period
Experimental: In this test, nigro-neostriatal-lesioned rats are employed, which are prepared by the procedure of Ungerstedt and Arbuthnott, Brain Res, 24, 485 (1970). A compound having dopamine agonist activity causes the rats to turn in circles contralateral to the side of the lesion. After a latency period, which varies from compound to compound, the number of turns is counted over a 15-minute period.
The compounds were dissolved in water and the aqueous solution injected into the rat by the intraperitoneal route.

prolactin [5] = experiment: inhibition of serum prolactin in reserpine-pretreated male rats; assay type: in vivo, rat (Sprague-Dawley); settings: from dose response curves
serotonin = serotonin agonist activity
[6] = Experiment 3, 50 mcg/kg i.p., 1 hour, control 42.3 ± 7.3, P <0.001
[7] = Experiment 1, 50 mcg/kg i.p., 1 hour, control 30.4 ± 3.4, P <0.001 or <0.01

Compound | Ki (dopamine receptors) [nM] | inhibition at 0.05 mg/kg (prolactin [3]; 1 h) [%] | % of Rats Exhibiting Turning Behavior ([4]; IP dose 1 mg/kg, Table I) [%] | Duration of Effect ([4]; IP dose 1 mg/kg, Table I) [h] | Latency of Effect ([4]; IP dose 1 mg/kg, Table I) [min] | Average Number of Turns/rat ([4]; IP dose 1 mg/kg, Table I) [Turns/rat] | also measured
N[C@@H](Cc1ccc(O)c(O)c1)C(=O)O [1-dopa, 1-dihydroxyphenylalanine] | – | – | – | – | – | – | metabolism (in words) [1]: rapidly metabolized
CC(C)C[C@H]1C(=O)N2CCC[C@H]2[C@]2(O)O[C@](NC(=O)[C@@H]3C=C4c5cccc6[nH]c(Br)c(c56)C[C@H]4N(C)C3)(C(C)C)C(=O)N12 [2-bromo-α-ergokryptine] | – | – | – | – | – | – | treatment of Parkinsonism (in words) (Parkinsonism): useful in the treatment of Parkinsonism; dopamine receptor stimulation (in words) (dopamine receptor): stimulate dopamine receptors; prolactin inhibitor activity (in words) (prolactin [2]): activity as prolactin inhibitors
CCCN1C[C@H](CSC)C[C@@H]2c3cccc4[nH]c(Br)c(c34)C[C@H]21 [D-2-bromo-6-n-propyl-8β-methylmercaptomethylergoline] | 3 | 89 | 100 | 1 | 5 | 71 | Serum Prolactin Level (prolactin [3]; [6]): 4.6 ± 0.4 ng/mL
CSC[C@@H]1C[C@@H]2c3cccc4[nH]c(Cl)c(c34)C[C@H]2N(C)C1 [D-2-chloro-6-methyl-8β-methylmercaptomethylergoline mesylate, reference compound] | 6 | – | – | – | – | – | –
C=CCN1C[C@H](CSC)C[C@@H]2c3cccc4[nH]cc(c34)C[C@H]21 [D-6-allyl-8β-methylmercaptomethylergoline] | 5 | – | – | – | – | – | –
CCN1C[C@H](CSC)C[C@@H]2c3cccc4[nH]cc(c34)C[C@H]21 [D-6-ethyl-8β-methylmercaptomethylergoline] | 3.5 | 91 | 100 | ≥ 2 | 9 | 112 | Serum Prolactin Level (prolactin [3]; [6]): 3.9 ± 0.4 ng/mL
CN1CC(CC#N)C[C@@H]2c3cccc4[nH]cc(c34)C[C@H]21 (stereo partly drawn) [D-6-methyl-8-cyanomethylergoline] | – | – | – | – | – | – | prolactin inhibitor activity (in words) (prolactin [2]): activity as prolactin inhibitors
COC[C@@H]1C[C@@H]2c3cccc4[nH]cc(c34)C[C@H]2N(C)C1 [D-6-methyl-8β-methoxymethylergoline mesylate, reference compound] | 75 | – | – | – | – | – | –
CSC[C@@H]1C=C2c3cccc4[nH]cc(c34)C[C@H]2N(C)C1 [D-6-methyl-8β-methylmercaptomethyl-9-ergolene, reference compound] | 6 | – | – | – | – | – | –
CSC[C@@H]1C[C@@H]2c3cccc4[nH]cc(c34)C[C@H]2N(C)C1 [D-6-methyl-8β-methylmercaptomethylergoline mesylate, reference compound] | 13 | 58 | 50 | – | 30 to 45 | 51 | Serum Prolactin Level (prolactin [3]; [7]): 12.8; Duration of Effect in Hours ([4]; IP dose 1 mg/kg, Table I): ~ 2 Hours
CCCN1CC(CSC)=C[C@@H]2c3cccc4[nH]cc(c34)C[C@H]21 [D-6-n-propyl-8-methylmercaptomethyl-8-ergolene] | 2 | 91 | 100 | 1 | 4 | 118 | Serum Prolactin Level (prolactin [3]; [6]): 3.9 ± 0.2 ng/mL
CCCN1C[C@H](COC)C[C@@H]2c3cccc4[nH]cc(c34)C[C@H]21 [D-6-n-propyl-8β-methoxymethylergoline methanesulfonate] | 10 | 96 | 100 | ≥ 2 | 6 | 111 | Serum Prolactin Level (prolactin [3]; Experiment 2, 50 mcg/kg i.p., 1 hour, control 55.2 ± 4.1, P <0.001): 2.4 ± 0.2 ng/mL
CCCN1C[C@H](CSC)C=C2c3cccc4[nH]cc(c34)C[C@H]21 [D-6-n-propyl-8β-methylmercaptomethyl-9-ergolene] | 2 | 81 | 100 | ≥ 2 | 4 | 200 | Serum Prolactin Level (prolactin [3]; [6]): 8.1 ± 1.2
CCCN1C[C@H](CSC)C[C@@H]2c3cccc4[nH]cc(c34)C[C@H]21 [D-6-n-propyl-8β-methylmercaptomethylergoline methanesulfonate] | 3 ± 1 | – | – | ≥ 24 | 5 to 7 | 105 | potency as a prolactin inhibitor relative to the corresponding D-6-methyl compound (prolactin [5]): about 100 times; Serum Prolactin Level (prolactin [3]; [7]): 1.6 ± 0.4 ng/mL; inhibition at 0.05 mg/kg (prolactin [3]; Experiment 1, 50 mcg/kg i.p., 1 hour, P <0.001 (n-propyl), <0.01 (methyl)): 95%; average turns per lesioned rat ([4]; 15-minute period after latency): 105 turns per lesioned rat; potency in the turning behavior test relative to the corresponding D-6-methyl derivative ([4]; from dose response curves, 6-hydroxydopamine-lesioned rats): about 30 times
CCCN1C[C@H](CSC)C[C@@H]2c3cccc4[nH]cc(c34)C[C@H]21 [D-6-n-propyl-8β-methylmercaptomethylergoline] | – | – | – | – | – | – | inhibition of high affinity binding of tritiated dopamine (in words) (dopamine receptors; bovine striatal synaptosome membranes): extremely potent inhibitors; serotonin activity (in words) (serotonin): serotonin agonists rather than serotonin antagonists
CCCN1C[C@H](C[S+](C)[O-])C[C@@H]2c3cccc4[nH]cc(c34)C[C@H]21 (stereo partly drawn) [D-6-n-propyl-8β-methylsulfinylmethylergoline] | – | 92 | 100 | 1 | 7 | 65 | Serum Prolactin Level (prolactin [3]; [6]): 3.3 ng/mL
CC(C)[C@H]1C(=O)N2CCC[C@H]2[C@]2(O)O[C@](NC(=O)[C@@H]3C=C4c5cccc6[nH]cc(c56)C[C@H]4N(C)C3)(C(C)C)C(=O)N12 [Ergocornine] | – | – | – | – | – | – | dopamine receptor stimulation (in words) (dopamine receptor): direct dopamine receptor stimulants of long duration; prolactin inhibitor activity (in words) (prolactin [2]): activity as prolactin inhibitors
CC(C)[C@H]1C(=O)N2CCC[C@H]2[C@]2(O)O[C@](NC(=O)[C@@H]3C[C@@H]4c5cccc6[nH]cc(c56)C[C@H]4N(C)C3)(C(C)C)C(=O)N12 [dihydroergocornine] | – | – | – | – | – | – | prolactin inhibitor activity (in words) (prolactin [2]): activity as prolactin inhibitors
CN1C[C@H](CC#N)C[C@@H]2c3cccc4[nH]c(Cl)c(c34)C[C@H]21 [lergotrile] | – | – | – | – | – | – | treatment of Parkinsonism (in words) (Parkinsonism): useful in the treatment of Parkinsonism
